Reference: PMC3612106, “Metabolism of BYZX in Human Liver Microsomes and Cytosol: Identification of the Metabolites and Metabolic Pathways of BYZX” (PLoS ONE, 2013)
Where two headings read alike, the source gives them in different places.

What was measured:
pooled HLMs = experiment: Initial estimation of metabolism enzymes in pooled HLMs; assay type: in vitro ADME, human; conditions: 5 mM ABT preincubated 30 min, 0.4 mg/mL pooled HLMs, 20 µM BYZX
Procedure: Initial estimation of the main metabolic pathway in HLMs was performed using specific inhibitors, or by altering experimental conditions, to identify CYP and non-CYP metabolic pathway. Three groups of incubation of BYZX with pooled HLMs under different additive processes were carried out in parallel to identify whether the metabolites produced were mediated by CYPs or not. In Group I, the incubation mixture including 0.4 mg/mL pooled HLMs protein, 4 µL of NADP/NADPH solution (0.026 M NADP and 0.012 M NADPH in 1% NaHCO3 solution) and 5 mM 1-aminobenzotriazole (ABT, 1 M dissolved in dimethyl sulfoxide, DMSO) were preincubated at 37°C for 30 min, and then 20 µM BYZX was added into the incubation system (n = 2). In Group II, the incubation mixture including 0.4 mg/mL pooled HLMs protein were preincubated at 45°C for 10 min to abolish the activities of the flavin-containing monooxygenases (FMOs), and then 20 µM BYZX was added and precincubated at 37°C for 5 min, and then 4 µL of NADP/NADPH solution was added to initiate the reaction (n = 2). In Group III, the incubation mixture including 0.4 mg/mL pooled HLMs protein and 20 µM BYZX were preincubated at 37°C for 5 min, and then 4 µL of NADP/NADPH solution or […] NaHCO3 solution were added to initiate the reaction (n = 2). […]

CYP2C8 = molecular target: T1, CYP2C8 (Homo sapiens, UniProt P10632); experiment: Incubation and kinetics with recombinant human CYP2C8; assay type: in vitro ADME; conditions: for K m of N-des-ethylation: recombinant CYP2C8 0.1 mg/mL
T1 construct: purchased BD Gentest (Woburn, MA); host or cells: baculovirus-insect cells
T1 sequence (P10632 1-490): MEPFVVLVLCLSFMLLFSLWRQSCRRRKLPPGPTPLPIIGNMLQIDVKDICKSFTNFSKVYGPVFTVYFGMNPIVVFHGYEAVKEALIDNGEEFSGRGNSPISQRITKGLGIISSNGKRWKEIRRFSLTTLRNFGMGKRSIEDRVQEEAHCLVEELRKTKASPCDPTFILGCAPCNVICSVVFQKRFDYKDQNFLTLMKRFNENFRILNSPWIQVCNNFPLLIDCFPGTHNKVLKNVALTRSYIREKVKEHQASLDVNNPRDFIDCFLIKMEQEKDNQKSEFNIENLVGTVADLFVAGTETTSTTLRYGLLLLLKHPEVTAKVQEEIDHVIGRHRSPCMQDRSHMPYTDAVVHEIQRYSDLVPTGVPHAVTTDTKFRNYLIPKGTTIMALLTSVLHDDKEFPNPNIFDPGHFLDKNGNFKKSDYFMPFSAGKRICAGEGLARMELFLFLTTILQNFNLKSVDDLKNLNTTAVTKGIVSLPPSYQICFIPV
Procedure: (§1) Commercial baculovirus-insect cell-expressed human CYPs (0.1 mg/mL) including CYP1A2, 2A6, 2B6, 2C8, 2C9, 2C19, 2D6, 2E1 and 3A4 were incubated with 20 µM BYZX and 3 µM M2 in the aforementioned method respectively. After 40 min 1 volume of ice cold methanol was added to terminate the reaction. The mixture was vortexed for 1 min and centrifuged at 13 000 rpm for 15 min. 7 µL of the supernatant was injected into the LC-MS system for analysis.
(§2) The kinetics studies were performed using human liver cytosol, HLMs, and recombinant human CYP3A4 and CYP2C8. Before the kinetic study, the incubation time and the enzyme concentration for linear formation of metabolites were optimized. The concentrations of cytosol, HLMs, CYP3A4 and CYP2C8 protein were 0.4, 0.4, 0.04 and 0.1 mg/mL, respectively. The incubation times of HLMs, CYP3A4 and CYP2C8 were […], respectively. […] The following equation was applied, assuming a Michaelis–Menten equation: V = V max× [S]/(K m+[S]), where V is the rate of reaction, V max is the maximum velocity, K m is the Michaelis constant (substrate concentration at half of V max), and [S] is the substrate concentration. Eadie-Hofstee plot was used to confirm allosteric kinetics.

[1] = Metabolism and kinetics in pooled HLMs; assay type: in vitro ADME, human; conditions: for K m of N-des-ethylation: HLMs 0.4 mg/mL; for microsomal CLint: pooled human liver microsomes
Procedure: BYZX (20 µM) was incubated in a 200 µL of reaction buffer solution containing 0.1 M Tris-HCl (pH 7.4), 0.15 M MgCl2, NADPH-generating system (9.7 mM dl-isocitrate trisodium and 0.07 unit of isocitrate dehydrogenase), and 1 mg/mL pooled HLMs. The incubation mixture was preincubated at 37°C for 5 min, and then the reaction was initiated by adding 4 µL of NADP/NADPH solution (0.026 M NADP and 0.012 M NADPH in 1% NaHCO3 solution). After incubation at 37°C for 120 min, 200 µL of cold methanol was added to terminate the reaction and precipitate the protein. The mixture was vortexed for 1 min and centrifuged at 13 000 rpm for 15 min. 7 µL of the supernatant was injected into the LC system.
(§3) Moreover, very small amount of M3 was isolated from pooled incubation samples by HPLC-UV on an ODS column with a gradient solvent system consisting of methanol and 10 mM ammonium formate in water. Then, M3 were incubated in pooled HLMs, recombinant CYPs, and human cytosol to confirm the further metabolism.
as §2

[2] = Metabolism and kinetics in human liver cytosol; assay type: in vitro ADME
Procedure: as §3, §2
Estimation of the kinetics for BYZX hydrogenation in human liver cytosol was similar to what described above. BYZX in a series of concentration (5.0, 10.0, 20.0, 40.0, 100.0, 150.0, 200.0 µM) were incubated with 0.2 mg/mL of cytosol protein for 20 min at 37°C, and the different formation rates of M2 were assayed for estimating the kinetic parameters.

[3] = molecular target: T2, NADPH-CYP450 oxidoreductase (OR) and cytochrome b5 (cyt b5) (Homo sapiens, UniProt P00167+P16435); experiment: Incubation with recombinant OR and cyt b5 (Sf9 expression); assay type: in vitro ADME
T2 construct: made in house; host or cells: Sf9 insect cells
Procedure: In order to determine whether OR and cyt b5 are the reductases of BYZX, OR and cyt b5 were expressed individually and together in our previous method using insect cell expression system, Sf9 cell line, [14]. The incubation method was similar to what described above. The production of M2 was determined.

[4] = system: chemical-induced learning and memory impairments; conditions: rodents; cited from earlier work
PC12 cells = conditions: cited from earlier work
CYP3A4 [5] = molecular target: T3, CYP3A4 (Homo sapiens, UniProt P08684); experiment: Incubation and kinetics with recombinant human CYP3A4; assay type: in vitro ADME; design: purchased BD Gentest (Woburn, MA); host or cells: baculovirus-insect cells; conditions: for K m of N-des-ethylation: recombinant CYP3A4 0.04 mg/mL, BYZX fitted to allosteric sigmoidal kinetics
Procedure: as §1, §2
Target sequence in this assay (P08684 whole entry): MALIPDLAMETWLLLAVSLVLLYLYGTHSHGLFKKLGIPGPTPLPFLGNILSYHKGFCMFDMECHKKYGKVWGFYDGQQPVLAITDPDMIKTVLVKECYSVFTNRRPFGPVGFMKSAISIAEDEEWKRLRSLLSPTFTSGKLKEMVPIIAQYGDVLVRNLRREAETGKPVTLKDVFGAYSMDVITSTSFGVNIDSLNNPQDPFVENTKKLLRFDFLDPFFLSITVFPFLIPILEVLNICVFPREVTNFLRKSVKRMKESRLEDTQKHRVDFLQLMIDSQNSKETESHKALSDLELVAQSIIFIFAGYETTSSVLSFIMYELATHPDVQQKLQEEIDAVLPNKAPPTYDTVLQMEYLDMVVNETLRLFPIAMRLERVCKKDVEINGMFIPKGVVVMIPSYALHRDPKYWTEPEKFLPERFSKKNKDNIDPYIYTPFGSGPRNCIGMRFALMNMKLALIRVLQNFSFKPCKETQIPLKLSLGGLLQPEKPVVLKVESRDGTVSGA

[6] = system: formation of M2 from BYZX in human liver cytosol; experiment: in vitro; assay type: in vitro ADME; conditions: 100 µM inhibitor, 20 µM BYZX, human liver cytosol (Fig. 6B)
Procedure: (§4) Some reductase inhibitors and substrate were used to inhibit the hydrogenate reaction of BYZX. 20 µM BYZX was incubated with 100 µM dicoumarol in human liver cytosol and was incubated with 100 µM benzylideneacetone and with 20 µM finasteride in HLMs, respectively.

[7] = system: formation of M2 from BYZX in HLMs; experiment: Inhibition of BYZX hydrogenation in HLMs; assay type: in vitro ADME, human; conditions: 20 µM BYZX
Procedure: as §4

[8] = system: reductase-mediated hydrogenation of BYZX (formation of M2); experiment: in vitro; assay type: in vitro ADME, human; conditions: human
Procedure: as §4

CYP3A4 [9] = molecular target: T3, CYP3A4; experiment: in vitro; conditions: pooled human liver microsomes, probe M2 20 µM (formation of M1)
Target sequence in this assay (P08684 2-503): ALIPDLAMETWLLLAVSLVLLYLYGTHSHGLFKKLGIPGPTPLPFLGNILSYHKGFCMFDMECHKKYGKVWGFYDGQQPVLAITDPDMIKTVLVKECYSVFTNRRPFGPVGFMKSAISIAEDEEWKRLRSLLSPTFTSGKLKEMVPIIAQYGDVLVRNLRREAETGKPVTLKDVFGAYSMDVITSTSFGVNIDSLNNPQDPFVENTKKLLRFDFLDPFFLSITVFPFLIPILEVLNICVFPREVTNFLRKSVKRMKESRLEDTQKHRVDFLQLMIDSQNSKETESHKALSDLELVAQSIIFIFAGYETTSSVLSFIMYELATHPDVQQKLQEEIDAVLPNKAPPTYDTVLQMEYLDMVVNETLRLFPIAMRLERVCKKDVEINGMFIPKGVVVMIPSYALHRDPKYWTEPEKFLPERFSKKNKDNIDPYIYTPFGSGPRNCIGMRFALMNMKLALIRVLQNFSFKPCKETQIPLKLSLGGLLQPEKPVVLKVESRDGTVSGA

Nn1nnc2ccccc21 [ABT, 1-aminobenzotriazole]
Effect on formation of desethyl metabolite M3 from BYZX (pooled HLMs): extensively suppressed | Effect on hydrogenation of BYZX to M2 (pooled HLMs): not significantly inhibited

CCN(CC)Cc1ccc(/C=C2\Cc3cc(OC)c(OC)cc3C2=O)cc1 [BYZX, (E)-2-(4-((diethylamino)methyl)benzylidene)-5,6-dimethoxy-2,3-dihydroinden-one]
Cl int of N-des-ethylation (M3 formation) (CYP2C8; recombinant CYP2C8): 1.59 A.U. | V max of N-des-ethylation (M3 formation) (CYP2C8; recombinant CYP2C8): 0.099±0.005 A.U. | K m of N-des-ethylation (CYP2C8): 62.1 ± 8.2 µM | K m of hydrogenation (M2 formation) ([1]; HLMs): 21.4 ± 1.4 µM | V max of hydrogenation (M2 formation) ([1]; HLMs): 0.252±0.008 nmol/min/mg protein | K m of N-des-ethylation [1]: 46.4 ± 5.9 µM | Cl int of N-des-ethylation (M3 formation) ([1]; human, microsomes): 2.39 A.U. | V max of N-des-ethylation (M3 formation) ([1]; human, pH 7.4): 0.111±0.008 A.U. | microsomal CLint ([1]; human, pH 7.4, HLMs, read-out: Cl int of hydrogenation (M2 formation)): 11.8 µL/min/mg | K m of hydrogenation in cytosol relative to HLMs ([2]; cytosol vs HLMs): about 2 times | Rate of hydrogenation (V max) in human liver cytosol relative to HLMs ([2]; cytosol vs HLMs): about 15 times | K m of hydrogenation (M2 formation) ([2]; human liver cytosol): 38.9 ± 2.5 µM | V max of hydrogenation (M2 formation) ([2]; human liver cytosol): 3.56±0.07 nmol/min/mg protein | Metabolism into M2 in S9 fraction of blank Sf9 cells ([3]; blank Sf9 cells S9): rapidly metabolized into M2 | Rate of formation of M2 in mixture of recombinant OR and cyt b5 ([3]; compared with blank Sf9 S9): significantly decreased | Effect on chemical-induced learning and memory impairments [4]: significantly improve | Effect on apoptosis induced by hydrogen peroxide (PC12 cells): protect | Cl int of N-des-ethylation (M3 formation) (CYP3A4 [5]; recombinant CYP3A4): 6.76 A.U. | V max of N-des-ethylation (M3 formation) (CYP3A4 [5]; recombinant CYP3A4): 3.3±0.4 A.U. | K m of N-des-ethylation (CYP3A4 [5]): 488.2 ± 160.2 µM

CCN(CC)Cc1ccc(CC2Cc3cc(OC)c(OC)cc3C2=O)cc1 (stereo not shown) [M2]
microsomal CLint (CYP2C8; human, recombinant human CYP2C8 (baculovirus-insect cell-expressed), recombinant CYP2C8, read-out: Cl int of N-des-ethylation (M1 formation)): 2.58 µL/min/mg | V max of N-des-ethylation (M1 formation) (CYP2C8; recombinant CYP2C8): 0.370±0.024 nmol/min/mg protein | K m of N-des-ethylation (CYP2C8): 143.2 ± 17.7 µM | V max of N-des-ethylation (M1 formation) ([1]; HLMs): 0.209±0.010 nmol/min/mg protein | K m of N-des-ethylation [1]: 105.7 ± 10.9 µM | microsomal CLint ([1]; human, pH 7.4, HLMs, read-out: Cl int of N-des-ethylation (M1 formation)): 1.98 µL/min/mg | microsomal CLint (CYP3A4 [5]; human, recombinant human CYP3A4 (baculovirus-insect cell-expressed), recombinant CYP3A4, read-out: Cl int of N-des-ethylation (M1 formation)): 6.01 µL/min/mg | V max of N-des-ethylation (M1 formation) (CYP3A4 [5]; recombinant CYP3A4): 0.392±0.016 nmol/min/mg protein | K m of N-des-ethylation (CYP3A4 [5]): 65.2 ± 7.2 µM | Cl int of CYP3A4 compared with that of CYP2C8 (M1 formation) (CYP3A4 [5]; recombinant CYP3A4 vs CYP2C8): over 2 folds

CCNCc1ccc(/C=C2\Cc3cc(OC)c(OC)cc3C2=O)cc1 [M3]
Further metabolism of M3 ([1]; human): could be further biotransformed into M1

CC(=O)C=Cc1ccccc1 [benzylideneacetone]
Effect on hydrogenation of BYZX (formation of M2) [6]: significantly suppressed

O=c1oc2ccccc2c(O)c1Cc1c(O)c2ccccc2oc1=O [dicoumarol]
IC50 ([7]; 0.2 mg/mL protein, 20 min): 7.7 ± 1.2 µM | Effect on hydrogenation of BYZX (formation of M2) [6]: dramatic inhibitory effect | IC50 at 20 min [8]: 1.6 ± 1.3 µM

CC(C)(C)NC(=O)[C@H]1CC[C@H]2[C@@H]3CC[C@H]4NC(=O)C=C[C@]4(C)[C@H]3CC[C@]12C [finasteride]
Effect on hydrogenation of BYZX (formation of M2) ([7]; 20 µM finasteride): no inhibitory effect

COc1ccc2c(c1)c(CC(=O)O)c(C)n2C(=O)c1ccc(Cl)cc1 [indomethacin]
IC50 at 20 min [8]: 18.8 ± 1 µM

CC(=O)N1CCN(c2ccc(OCC3COC(Cn4ccnc4)(c4ccc(Cl)cc4Cl)O3)cc2)CC1 (stereo not shown) [ketoconazole]
IC50 (CYP3A4 [9]): 9.8 ± 1.2 µM
